Laboratory results: the NIST ThermoML archive (doi:10.1021/je800356x)
Numbers after ± are expanded uncertainties.

Test: molar heat capacity at constant pressure
Conditions: 101.33 kPa, Liquid, Small sample (50 mg) DSC

OCCCCCO [1,5-pentanediol]
Conditions	molar heat capacity at constant pressure [J/K/mol]
293.15 K	229.04 ± 3.5
294.65 K	230.06 ± 3.6
296.15 K	231.1 ± 3.6
297.65 K	232.14 ± 3.6
298.15 K	232.49 ± 3.6
299.15 K	233.19 ± 3.6
300.65 K	234.25 ± 3.6
302.15 K	235.31 ± 3.6
303.65 K	236.39 ± 3.7
305.15 K	237.47 ± 3.7
306.65 K	238.56 ± 3.7
308.15 K	239.66 ± 3.7
309.65 K	240.77 ± 3.7
311.15 K	241.89 ± 3.8
312.65 K	243.01 ± 3.8
314.15 K	244.14 ± 3.8
315.65 K	245.28 ± 3.8
317.15 K	246.43 ± 3.8
318.65 K	247.59 ± 3.8
320.15 K	248.76 ± 3.9
321.65 K	249.93 ± 3.9
323.15 K	251.11 ± 3.9
324.65 K	252.3 ± 3.9
326.15 K	253.5 ± 3.9
327.65 K	254.7 ± 4
329.15 K	255.92 ± 4
330.65 K	257.14 ± 4
332.15 K	258.37 ± 4
333.65 K	259.61 ± 4
335.15 K	260.86 ± 4
336.65 K	262.11 ± 4.1
338.15 K	263.38 ± 4.1
339.65 K	264.65 ± 4.1
341.15 K	265.93 ± 4.1
342.65 K	267.22 ± 4.1
344.15 K	268.51 ± 4.2
345.65 K	269.82 ± 4.2
347.15 K	271.13 ± 4.2
348.65 K	272.45 ± 4.2
350.15 K	273.78 ± 4.2
351.65 K	275.12 ± 4.3
353.15 K	276.46 ± 4.3

OCCO [1,2-ethanediol]
Conditions	molar heat capacity at constant pressure [J/K/mol]
293.15 K	148.1 ± 2.3
294.65 K	148.57 ± 2.3
296.15 K	149.05 ± 2.3
297.65 K	149.53 ± 2.3
298.15 K	149.69 ± 2.3
299.15 K	150.01 ± 2.3
300.65 K	150.48 ± 2.3
302.15 K	150.96 ± 2.3
303.65 K	151.44 ± 2.4
305.15 K	151.92 ± 2.4
306.65 K	152.4 ± 2.4
308.15 K	152.88 ± 2.4
309.65 K	153.36 ± 2.4
311.15 K	153.83 ± 2.4
312.65 K	154.31 ± 2.4
314.15 K	154.79 ± 2.4
315.65 K	155.27 ± 2.4
317.15 K	155.75 ± 2.4
318.65 K	156.23 ± 2.4
320.15 K	156.71 ± 2.4
321.65 K	157.19 ± 2.4
323.15 K	157.67 ± 2.4
324.65 K	158.15 ± 2.5
326.15 K	158.63 ± 2.5
327.65 K	159.11 ± 2.5
329.15 K	159.6 ± 2.5
330.65 K	160.08 ± 2.5
332.15 K	160.56 ± 2.5
333.65 K	161.04 ± 2.5
335.15 K	161.52 ± 2.5
336.65 K	162 ± 2.5
338.15 K	162.49 ± 2.5
339.65 K	162.97 ± 2.5
341.15 K	163.45 ± 2.5
342.65 K	163.93 ± 2.5
344.15 K	164.42 ± 2.5
345.65 K	164.9 ± 2.5
347.15 K	165.38 ± 2.6
348.65 K	165.86 ± 2.6
350.15 K	166.35 ± 2.6
351.65 K	166.83 ± 2.6
353.15 K	167.32 ± 2.6

OCCCCO [1,4-butanediol]
Conditions	molar heat capacity at constant pressure [J/K/mol]
293.15 K	200.51 ± 3.1
294.65 K	201.33 ± 3.1
296.15 K	202.16 ± 3.1
297.65 K	202.99 ± 3.1
298.15 K	203.27 ± 3.1
299.15 K	203.82 ± 3.2
300.65 K	204.67 ± 3.2
302.15 K	205.51 ± 3.2
303.65 K	206.36 ± 3.2
305.15 K	207.22 ± 3.2
306.65 K	208.08 ± 3.2
308.15 K	208.95 ± 3.2
309.65 K	209.82 ± 3.2
311.15 K	210.7 ± 3.3
312.65 K	211.58 ± 3.3
314.15 K	212.47 ± 3.3
315.65 K	213.36 ± 3.3
317.15 K	214.26 ± 3.3
318.65 K	215.17 ± 3.3
320.15 K	216.08 ± 3.4
321.65 K	216.99 ± 3.4
323.15 K	217.91 ± 3.4
324.65 K	218.83 ± 3.4
326.15 K	219.76 ± 3.4
327.65 K	220.7 ± 3.4
329.15 K	221.64 ± 3.4
330.65 K	222.58 ± 3.5
332.15 K	223.53 ± 3.5
333.65 K	224.49 ± 3.5
335.15 K	225.45 ± 3.5
336.65 K	226.41 ± 3.5
338.15 K	227.38 ± 3.5
339.65 K	228.36 ± 3.5
341.15 K	229.34 ± 3.5
342.65 K	230.33 ± 3.6
344.15 K	231.32 ± 3.6
345.65 K	232.32 ± 3.6
347.15 K	233.32 ± 3.6
348.65 K	234.32 ± 3.6
350.15 K	235.34 ± 3.6
351.65 K	236.35 ± 3.7
353.15 K	237.38 ± 3.7

OCCCCCCCCCO [1,9-nonanediol]
Conditions	molar heat capacity at constant pressure [J/K/mol]
318.65 K	389.02 ± 6
320.15 K	391.15 ± 6.1
321.65 K	393.27 ± 6.1
323.15 K	395.39 ± 6.1
324.65 K	397.51 ± 6.2
326.15 K	399.62 ± 6.2
327.65 K	401.73 ± 6.2
329.15 K	403.84 ± 6.3
330.65 K	405.94 ± 6.3
332.15 K	408.03 ± 6.3
333.65 K	410.12 ± 6.3
335.15 K	412.21 ± 6.4
336.65 K	414.3 ± 6.4
338.15 K	416.38 ± 6.5
339.65 K	418.45 ± 6.5
341.15 K	420.52 ± 6.5
342.65 K	422.59 ± 6.5
344.15 K	424.66 ± 6.6
345.65 K	426.72 ± 6.6
347.15 K	428.77 ± 6.6
348.65 K	430.82 ± 6.7
350.15 K	432.87 ± 6.7
351.65 K	434.92 ± 6.7
353.15 K	436.95 ± 6.8

OCCCCCCCCO [1,8-octanediol]
Conditions	molar heat capacity at constant pressure [J/K/mol]
333.65 K	371.35 ± 5.8
335.15 K	373.24 ± 5.8
336.65 K	375.13 ± 5.8
338.15 K	377.03 ± 5.8
339.65 K	378.93 ± 5.9
341.15 K	380.83 ± 5.9
342.65 K	382.74 ± 5.9
344.15 K	384.65 ± 6
345.65 K	386.56 ± 6
347.15 K	388.48 ± 6
348.65 K	390.4 ± 6
350.15 K	392.32 ± 6.1
351.65 K	394.24 ± 6.1
353.15 K	396.17 ± 6.1

OCCCCCCO [1,6-hexanediol]
Conditions	molar heat capacity at constant pressure [J/K/mol]
318.65 K	282.66 ± 4.4
320.15 K	284.25 ± 4.4
321.65 K	285.84 ± 4.4
323.15 K	287.42 ± 4.5
324.65 K	288.99 ± 4.5
326.15 K	290.55 ± 4.5
327.65 K	292.12 ± 4.5
329.15 K	293.67 ± 4.5
330.65 K	295.22 ± 4.6
332.15 K	296.76 ± 4.6
333.65 K	298.3 ± 4.6
335.15 K	299.83 ± 4.6
336.65 K	301.36 ± 4.7
338.15 K	302.88 ± 4.7
339.65 K	304.4 ± 4.7
341.15 K	305.91 ± 4.7
342.65 K	307.41 ± 4.8
344.15 K	308.91 ± 4.8
345.65 K	310.4 ± 4.8
347.15 K	311.88 ± 4.8
348.65 K	313.36 ± 4.8
350.15 K	314.84 ± 4.9
351.65 K	316.31 ± 4.9
353.15 K	317.77 ± 4.9

OCCCO [propan-1,3-diol]
Conditions	molar heat capacity at constant pressure [J/K/mol]
293.15 K	173.4 ± 2.7
294.65 K	174.11 ± 2.7
296.15 K	174.83 ± 2.7
297.65 K	175.54 ± 2.7
298.15 K	175.78 ± 2.7
299.15 K	176.26 ± 2.7
300.65 K	176.98 ± 2.7
302.15 K	177.7 ± 2.8
303.65 K	178.42 ± 2.8
305.15 K	179.15 ± 2.8
306.65 K	179.87 ± 2.8
308.15 K	180.59 ± 2.8
309.65 K	181.32 ± 2.8
311.15 K	182.05 ± 2.8
312.65 K	182.78 ± 2.8
314.15 K	183.51 ± 2.8
315.65 K	184.24 ± 2.9
317.15 K	184.97 ± 2.9
318.65 K	185.7 ± 2.9
320.15 K	186.44 ± 2.9
321.65 K	187.17 ± 2.9
323.15 K	187.91 ± 2.9
324.65 K	188.65 ± 2.9
326.15 K	189.38 ± 2.9
327.65 K	190.12 ± 3
329.15 K	190.87 ± 3
330.65 K	191.61 ± 3
332.15 K	192.35 ± 3
333.65 K	193.1 ± 3
335.15 K	193.84 ± 3
336.65 K	194.59 ± 3
338.15 K	195.34 ± 3
339.65 K	196.09 ± 3
341.15 K	196.84 ± 3
342.65 K	197.59 ± 3.1
344.15 K	198.34 ± 3.1
345.65 K	199.1 ± 3.1
347.15 K	199.85 ± 3.1
348.65 K	200.61 ± 3.1
350.15 K	201.37 ± 3.1
351.65 K	202.13 ± 3.1
353.15 K	202.89 ± 3.1

OCCCCCCCO [1,7-heptanediol]
Conditions	molar heat capacity at constant pressure [J/K/mol]
293.15 K	292.06 ± 4.5
294.65 K	293.4 ± 4.5
296.15 K	294.75 ± 4.6
297.65 K	296.11 ± 4.6
299.15 K	297.48 ± 4.6
300.65 K	298.87 ± 4.6
302.15 K	300.26 ± 4.7
303.65 K	301.67 ± 4.7
305.15 K	303.09 ± 4.7
306.65 K	304.51 ± 4.7
308.15 K	305.95 ± 4.7
309.65 K	307.41 ± 4.8
311.15 K	308.87 ± 4.8
312.65 K	310.34 ± 4.8
314.15 K	311.83 ± 4.8
315.65 K	313.33 ± 4.8
317.15 K	314.83 ± 4.9
318.65 K	316.35 ± 4.9
320.15 K	317.88 ± 4.9
321.65 K	319.43 ± 5
323.15 K	320.98 ± 5
324.65 K	322.54 ± 5
326.15 K	324.12 ± 5
327.65 K	325.71 ± 5
329.15 K	327.31 ± 5.1
330.65 K	328 ± 5
332.15 K	330.54 ± 5.1
333.65 K	332.17 ± 5.2
335.15 K	333.81 ± 5.2
336.65 K	335.47 ± 5.2
338.15 K	337.13 ± 5.2
339.65 K	338.81 ± 5.2
341.15 K	340.5 ± 5.3
342.65 K	342.2 ± 5.3
344.15 K	343.91 ± 5.3
345.65 K	345.63 ± 5.3
347.15 K	347.37 ± 5.4
348.65 K	349.11 ± 5.4
350.15 K	350.87 ± 5.4
351.65 K	352.64 ± 5.5
353.15 K	354.42 ± 5.5
